“And” between values parts separate entries of the source, which are not always exact repeats. Equal values may be shown once. Read-outs that look alike come from different tables or passages of the source.
Legend:
Format in all cases: in vivo
[1] = system: canine hookworm (Ancylostoma caninum); assay: Anthelmintic test in naturally infected dogs with mixed infections, E.P.G. on 7th day: canine hookworm (Test Examples A3, B3, C3, D3); details: dogs, 30 mg/Kg orally once, one value per dog
Description: (§1) Three dogs with mixed infections by canine whipworm (Trichuris vulpis), canine hookworm (Ancylostoma caninum) and canine roundworm (Toxocara canis) (naturally infected dogs) were employed in a group of two and a group of one.
(§2) The compound provided for the test was Compound No.Al, and 20 mg/Kg thereof was placed in a gelatin capsule per 1 Kg of body weight, and administered orally to the two dogs. As control, only a gelatin capsule was administered orally to the one dog.
(§3) Before administration and on the 7th day after administration, fecal matter testing was conducted to calculate the E.P.G., and the anthelmintic effect was judged by the changing of the E.P.G. to negative.
(§4) As control, only gelatin capsules were administered orally to the one dog.
(§5) The same method as in Test Example A3, but the compound provided for the test was Compound No. Cl. 30 mg/Kg of this compound was placed in a gelatin capsule per 1 Kg of body weight and administered orally to the two dogs. As control, only gelatin capsules were administered orally to the one dog.

[2] = system: canine roundworm (Toxocara canis); assay: Anthelmintic test in naturally infected dogs with mixed infections, E.P.G. on 7th day: canine roundworm (Test Examples A3, B3, C3, D3); details: dogs, 30 mg/Kg orally once, one value per dog
Description: as §1, §2, §3, §4, §5

[3] = system: canine filaria; Dirofilaria immitis; assay: Test of anthelmintic effect against canine filaria in naturally infected dogs, subcutaneous injection, microfilaria in blood and adult filaria at autopsy (Test Examples A10, B10, C10, D10); details: for inhibition in vivo at 30 mg/kg: Dirofilaria immitis, sc, 240 h

`C=CCN(OC)C(C)=O` [Compound B1, N-allyl-N-acetyl-O-methylhydroxylamine] was tested. Which “Change of E.P.G. Before administration” value ([1]; baseline, 30 mg/kg) did it give?
Its value is 4,500 E.P.G. and 8,700 E.P.G.

And the “Change of E.P.G. 7th day” value [1]?
Its value is 0 E.P.G.

What about the “Change of E.P.G. Before administration” value ([2]; baseline, 30 mg/kg) of the same compound?
Its value is 6,100 E.P.G. and 3,200 E.P.G.

What about the “Change of E.P.G. 7th day” value [2] of the same compound?
The value was 0 E.P.G.

And the inhibition in vivo at 30 mg/kg ([3]; dog, 30 mg/Kg x 3, subcutaneous injection, read-out: Effect on adult filaria: Percent of worms killed)?
The inhibition in vivo at 30 mg/kg was 58%.

And the inhibition in vivo at 30 mg/kg ([3]; dogs, administration of 30 mg/Kg repeated three times, given as about 50% or more, read-out: anthelmintic effect against adult filaria)?
The inhibition in vivo at 30 mg/kg was no less than 50%.

And the “Number of microfilaria/20 µl on 10th day after the last administration” value ([3]; dog, 30 mg/Kg x 3, subcutaneous injection, suspension in 1% Tween 80)?
Its value is 0 /20 µl.

What about the “Effect on adult filaria: Number of worms killed/ Total parasite” value ([3]; dog, 30 mg/Kg x 3, subcutaneous injection, 30 mg/kg) of the same compound?
The value was 8/15 and 12/21.

What about the “anthelmintic effect against microfilaria (mf)” value ([3]; dogs, administration of 30 mg/Kg repeated three times) of the same compound?
Its value is “marked anthelmintic effect”.
